Reference: patent US20250269031A1, “MITOCHONDRIA TARGETING QUINOLINIUM-DRUG CONJUGATES AND THEIR SELF-ASSEMBLING NANOFORMULATIONS FOR CANCER THERAPY” (THE REGENTS OF THE UNIVERSITY OF CALIFORNIA, priority 2020, published 2025)
Read-outs that look alike come from different tables or passages of the source.

Tests used:
[1] = test system: Pancreatic cancer stem cells (CSC); experiment: Cell viability assay, pancreatic cancer stem cells; type: cell-based
Method: Cell viability assay. Pancreatic cancer stem cells (CSC, 5×10^3 cells per well) was plated in 96-well plates, incubated overnight, and then were treated with different concentrations of agents as indicated. After 72 h treatment, cell viability was quantified using the CellTiter-Glo assay Cell viability curves and the chemical structures of LM, LND, and m104 are shown in FIG. 31A and FIG. 31B.

[2] = test system: Pancreatic cancer stem cells; experiment: Sphere formation; type: cell-based; details: 5 μM, 10 days
Method: Pancreatic cancer stem cells (3000 cells per well) were mixed with matrigel and medium, and then placed in 24-well plates with pre-embedded matrigel and medium. After 24 h incubation, CSC cells were then treated with different agents as indicated and cultured for 10 days. The cells were imaged as shown in FIG. 33A and the sphere diameters were calculated by ImageJ and are plotted in FIG. 33B.

[3] = test system: CSC spheres (with Stella cell); experiment: Sphere growth, CSC spheres with Stella cell; type: cell-based; details: 5 μM
Method: Sphere growth. […] CSC cells (800 cells per well) and stella cells (400 cells per well) were plated together in 96-well low-attachment plates and incubated overnight. CSC spheres then were treated with different agents as indicated. Spheres growth was monitored by CLSM (every two days).

CSC cells [4] = experiment: Seahorse assay (oxygen consumption rate); type: cell-based; details: 24 h
Method: Seahorse assay. CSC cells (2×10^4 cells per well) were treated as indicated for 24 h. The Oxygen Consumption Rate (OCR) were measured by the Agilent Seahorse XF analyzer.

[5] = test system: Pancreatic cancer stem cells; experiment: Cell growth assay; type: cell-based; details: 2 μM
Method: Cell growth. Pancreatic cancer stem cells were plated in 6-well plates (50,000 cell per well) and treated as indicated and were counted manually every 24 h. The cell growth is plotted over time in FIG. 31C.

Bxpc-3 and AsPc cells = experiment: Cell viability, Bxpc-3 and AsPc; type: cell-based; details: 72 h treatment
Method: Cell viability. Bxpc-3 and AsPc cells (CSC, 5×10^3 cells per well) was plated in 96-well plates, incubated overnight, and then were treated with different concentrations of agents as indicated. After 72 h treatment, cell viability was quantified using the CellTiter-Glo assay.

CSC cells [6] = experiment: Mitochondria membrane potential (JC-1), CSC; type: cell-based; details: 24 h
Method: Mitochondria membrane potential. JC-1 dye was used as an indicator of mitochondrial membrane potential. Briefly, Cells (2×10^4 cells per well) were treated as indicated for 24 h, washed and cultured with fresh medium. Then 0.5 μg/mL JC-1 was added for another 30 min incubation. Images were captured by CLSM.

OSC-3 cells [7] = experiment: Cell viability assay (CellTiter-Glo), OSC-3; type: cell-based; details: for IC50: read-out: IC50 cytotoxicity; for anticancer effect: OSC-3, with light, 0.3 μM to 1 μM
Method: OSC-3, BXPC-3, AsPC-1, PANC-1, UM-UC-3, 5637, or IMR90 cells were seeded in 96-well plates at a density of 5×10^3 cells per well and were grown overnight. Cells were incubated with various concentrations of drugs for 24 h, followed washing with PBS three times, and adding 100 μL fresh medium. For light-treated groups, cells were irradiated for 30 s using a 633-nm LED array (Omnilux new-U) at a power density of 30 mW cm^−2 at room temperature and then were cultured for another 24 h in parallel with non-light treated groups. Cell viability was quantified using the CellTiter-Glo assay (Promega, USA).

OSC-3 cells [8] = experiment: Colocalization assay (MitoTracker, LysoTracker, CLSM); type: cell-based; details: 2 μM, 4 h
Method: OSC-3 cells were treated with PQC NFs (2 μM) for various times (from 5 min to 8 h) or with PA (2 μM) for 4 h, followed by incubation with LysoTracker Green (Thermo Fisher Scientific, USA) and MitoTracker Red (Cell Signaling Technology, USA) for 30 min. Cells were visualized on confocal laser scanning microscopy (CLSM) (Carl Zeiss, Germany) immediately to investigate the subcellular localization. Signals of PQC NPs and PA were observed on the Cy5 channel. LysoTracker and MitoTracker were observed according the manufacturer's instructions. The corresponding Pearson correlation coefficient was calculated by ImageJ software.

OSC-3 cells [9] = experiment: Mitochondrial membrane potential assay (JC-1); type: cell-based; details: 1 μM, with light
Method: The mitochondrial membrane potential was determined using the dye JC-1 as a probe (Thermo Fisher Scientific, USA). Briefly, OSC-3 cells (2×10^4 cells per well) were treated with drugs (1 μM) for 24 h. […] JC-1 (5 μg mL^−1) was added to incubate for 20 min. Cell imaging was performed on a CLSM (Carl Zeiss, Germany). The ratio of red/green fluorescence intensity was calculated by ImageJ software.

OSC-3 cells [10] = experiment: Apoptosis assay (Annexin V-APC/PI); type: cell-based
Method: Apoptosis assay was performed with the Annexin V-APC/propidium iodide (PI) apoptosis kit (Biolegend, USA). […] […] Cells were stained with the apoptosis kit according to the manufacturer's instructions. All samples of cells were collected for flow cytometry using a BD FACSCanto flow cytometer (BD, USA). Data analysis was accomplished using FlowJo software.

OSC-3 cells [11] = experiment: Cell TEM study of mitochondria morphology; type: cell-based; details: 0.5 μM, 24 h
subcutaneous OSC-3 tumor [12] = experiment: In vivo fluorescence imaging, tumor retention; design: species or system nude mice; details: intratumoral injection, 10 nmol per 50 mm^3
From the text: (§1) Female athymic nude mice, 6-week-old, were purchased from Envigo (Indianapolis, IN, USA). All animal experiments were strictly performed in compliance with the protocol (#20265) approved by the Institutional Animal Care and Use Committee at the University of California, Davis. The subcutaneous and orthotopic tumor models were established by inoculated OSC-3 cells into both flanks (5×10^6 cells per tumor) or lower lips (1×10^6 cells per tumor) of nude mice. When the subcutaneous tumors reached about 80 mm^3 and orthotopic tumors reached about 50 mm^3, the mice started to be treated as indicated.
The subcutaneous tumor model was used in fluorescence imaging study in vivo of PA and PQC NFs. PA and PQC NFs (10 nmol per 50 mm^3 tumor) were administered by intratumoral injection. Fluorescence imaging were performed on a ChemiDoc™ MP imaging system (Bio-Rad, USA) at different time points post-injection.

OSC-3 tumors = experiment: Intratumoral ROS production (DCF-DA, ex vivo imaging); type: in vivo, nude mice; details: laser at days 1, 2, 5, 6 post-injection
Method: Laser (680 nm) treatment was conduct by a laser device within an energy of 0.2 W cm^−2 for 6 min (Shanghai Xilong Optoelectronics Technology, China). Mice bearing subcutaneous and orthotopic tumors were randomly divided into four groups (n=6): Vehicle (PBS), DQA, PA, and PQC NFs. The drug was intratumorally injected into mice at a dose of 1 mM (10 nmol per 50 mm^3 tumor). Laser treatment was performed for a total of four times, one each on days 1, 2, 5, and 6 post-injection of drugs. The relative tumor value and body weight were recorded every two days. In subcutaneous models, the tumors in the right flank of mice were subjected to laser treatment, while the left tumors were not. In orthotopic models, all tumors were treated with the laser treatment. The temperature of tumor surface was monitored using a thermal camera (FLIR Systems, USA) immediately after laser treatment. ROS production in the tumor after light treatment was also measured using DCF-DA as an indicator. Briefly, the tumor was treated with different drugs via intratumoral injection at first. Then, the mice with tumors were treated with the laser at 1st, 2nd, 5th, and 6th day independently. […] The fluorescence intensity of DCF-DA was quantified by Image J software. […]

subcutaneous OSC-3 tumor [13] = experiment: In vivo anticancer study, subcutaneous oral cancer model; design: species or system nude mice; details: for H&E staining of tumors: 24 h drug, then laser; for antitumor effect: with laser; for antitumor efficacy: without laser
From the text: as §1
Laser (680 nm) treatment was conduct by a laser device within an energy of 0.2 W cm^−2 for 6 min (Shanghai Xilong Optoelectronics Technology, China). […] The drug was intratumorally injected into mice at a dose of 1 mM (10 nmol per 50 mm^3 tumor). Laser treatment was performed for a total of four times, one each on days 1, 2, 5, and 6 post-injection of drugs. The relative tumor value and body weight were recorded every two days. In subcutaneous models, the tumors in the right flank of mice were subjected to laser treatment, while the left tumors were not. In orthotopic models, all tumors were treated with the laser treatment. The temperature of tumor surface was monitored using a thermal camera (FLIR Systems, USA) immediately after laser treatment. ROS production in the tumor after light treatment was also measured using DCF-DA as an indicator. Briefly, the tumor was treated with different drugs via intratumoral injection at first. Then, the mice with tumors were treated with the laser at 1st, 2nd, 5th, and 6th day independently. After each light treatment, the mice were sacrificed immediately, and the obtained tumors were cut into small pieces and immersed in the DCF-DA solutions for 10 min. Finally, the tumors pieces were imaged by the ChemiDoc™ MP imaging system with the FITC channel. The fluorescence intensity of DCF-DA was quantified by Image J software. Mice were sacrificed after the first light treatment to obtain tumor and organs tissue for TEM, H&E, and IHC evaluation.

[14] = Characterization of PQC NFs (TEM, DLS); type: physicochemical
Method: Preparation and Characterization of PQC NFs: Briefly, PQC monomers in ethanol were added dropwise into deionized water under stirring. Ethanol in the solution was removed by vacuum rotary evaporation at 37° C. and the self-assembling PQC NFs were formed spontaneously. The aqueous nanofiber solution (0.02 mg mL^−1) was deposited on copper grids to prepare samples for transmission electron microscope (TEM). The morphology was observed by a Talos L120C TEM (Thermo Fisher Scientific, USA). The UV-Vis and fluorescence spectra were measured by a UV-Vis spectrometer (UV-1800, Shimadzu, Japan) and a fluorescence spectrometer (RF-6000, Shimadzu, Japan), respectively. NIR fluorescence imaging studies was performed by a ChemiDoc™ MP imaging system (Bio-Rad, USA). The ^1O2 production was detected using SOSG (Thermo Fisher Scientific, USA) as an indicator. Briefly, SOSG solution was added into drug solutions in 96 wells plate. […] Fluorescence intensity was determined by a microplate reader (Tecan, Switzerland). The ultrafiltration experiment of PQC NFs were conducted using a centrifuge (10k rpm, 10 min) and a centrifuge tube (10 kDa, Beckman Coulter, USA).

Compound | tumorsphere formation [2] | CSC tumorsphere (with Stella cell) growth [3] | oxygen consumption rate (Mito stress test) (CSC cells [4]) | anticancer effect (OSC-3 cells [7]) | mitochondrial membrane potential change (JC-1) (OSC-3 cells [9]) | morphological changes in mitochondria (TEM) (OSC-3 cells [11]; with light) | H&E staining of tumors (subcutaneous OSC-3 tumor [13]) | antitumor effect (subcutaneous OSC-3 tumor [13]) | antitumor efficacy (subcutaneous OSC-3 tumor [13]) | further results
O=C(O)c1nn(Cc2ccc(Cl)cc2Cl)c2ccccc12 [LND, 1-(2,4-dichlorobenzyl)-1H-indazole-3-carboxylic acid] | limited inhibition | no effect | no significant impact on OCRs | – | – | – | – | – | – | IC50 ([1]; CSC, 72 h treatment, read-out: IC50): 30 ± 2.2 µM
Cc1cc(N)c2ccccc2[n+]1CCCCCCCCCCNC(=O)c1nn(Cc2ccc(Cl)cc2Cl)c2ccccc12 [LM] | blocked tumorsphere formation in CSCs | inhibits CSC tumorsphere (with Stella cell) growth | decrease in basal mitochondrial respiration and spare respiration capacity | – | – | – | – | – | – | IC50 ([1]; 72 h): 0.46 ± 0.05 µM; cell growth [5]: inhibitory effects; potency on other pancreatic tumor cells (Bxpc-3 and AsPc cells): more potent than LND, m104, mixture of LND and m104; mitochondrial membrane potential (JC-1) (CSC cells [6]): decreased Δψm
pheophorbide a [PA] | – | – | – | did not show obvious anticancer effects | not effective enough to cause a signal change | only caused some mitochondrial swelling | only a small portion of tumor tissue showed apoptosis/necrosis | effectively inhibited tumor growth but did not shrink the tumors | did not show significant antitumor efficacy | cytotoxicity (OSC-3 cells [7]; OSC-3, absence of light): did not show cytotoxicity even at 100 uM; IC50 (OSC-3 cells [7]; OSC-3, light treatment 30 mW cm^-2 for 30 s, 633 nm): 2.57 µM; subcellular colocalization (OSC-3 cells [8]): low-level colocalization with mitochondria or lysosomes; apoptosis induction (OSC-3 cells [10]; 0.2 μM, with light): failed to induce apoptosis; Annexin V positive population (OSC-3 cells [10]; 2 μM, 24 h, light, another 12 h): 19.3%; morphological changes in mitochondria (TEM) (OSC-3 cells [11]; without light): healthy mitochondria; fluorescence within tumors over time (subcutaneous OSC-3 tumor [12]): nearly undetectable at the 4th day post-injection; ROS levels in tumors (OSC-3 tumors): high at 24 h post-injection and decreased quickly at later time points; surface charge [14]: −11.5±1.3 mV
Cc1cc(N)c2ccccc2[n+]1CCCCCCCCCC[n+]1c(C)cc(N)c2ccccc21 [DQA, dequalinium] | – | – | – | did not show obvious anticancer effects | not effective enough to cause a signal change | morphologically changed mitochondria with and without light treatment | no significant cell death | did not show an obvious antitumor effect | did not show significant antitumor efficacy | IC50 (OSC-3 cells [7]; OSC-3, absence of light, 24 h + 24 h): 3 µM
